Assay results taken from ChEMBL document CHEMBL1909046, “DrugMatrix in vitro pharmacology data”.

Columns and labels:
[1] = DRUGMATRIX: Atrial Natriuretic Factor (ANF) radioligand binding (ligand: [125I] ANF (rat)); type: cell membranes, Cavia porcellus, Dunkin-Hartley, Adrenal gland, Membrane; settings: Not Active = under 50% inhibition at 10 µM
[2] = biological target: 5-hydroxytryptamine receptor 6 (Homo sapiens, UniProt P50406); type: cell membranes, HeLa, Membrane; further: in other assays of this panel Not Active means under 50% inhibition at 10 µM
[3] = biological target: Sigma non-opioid intracellular receptor 1 (Homo sapiens, UniProt Q99720); experiment: DRUGMATRIX: Sigma1 radioligand binding (ligand: [3H] Haloperidol); type: cell membranes, Jurkat, Membrane; settings: jurkat; Not Active = under 50% inhibition at 10 µM
[4] = biological target: Vascular endothelial growth factor receptor 1 (Homo sapiens, UniProt P17948); type: cell-based; settings: huvec; further: in other assays of this panel Not Active means under 50% inhibition at 10 µM
[5] = biological target: C-C chemokine receptor type 5 (Homo sapiens, UniProt P51681); type: cell membranes, Membrane; settings: hek293; further: in other assays of this panel Not Active means under 50% inhibition at 10 µM
[6] = biological target: D(3) dopamine receptor (Homo sapiens, UniProt P35462); experiment: DRUGMATRIX: Dopamine D3 radioligand binding (ligand: [3H] Spiperone); type: cell membranes, CHO, Membrane; settings: cho
[7] = biological target: T1, 3-hydroxy-3-methylglutaryl-coenzyme A reductase (Homo sapiens, UniProt P04035); parameters: species or system Escherichia coli;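 further: enzyme inhibition assay of HMG-CoA reductase using radiolabeled [14C]HMG-CoA as substrate; in other assays of this panel Not Active means under 50% inhibition at 10 µM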
T1 sequence (P04035 whole entry): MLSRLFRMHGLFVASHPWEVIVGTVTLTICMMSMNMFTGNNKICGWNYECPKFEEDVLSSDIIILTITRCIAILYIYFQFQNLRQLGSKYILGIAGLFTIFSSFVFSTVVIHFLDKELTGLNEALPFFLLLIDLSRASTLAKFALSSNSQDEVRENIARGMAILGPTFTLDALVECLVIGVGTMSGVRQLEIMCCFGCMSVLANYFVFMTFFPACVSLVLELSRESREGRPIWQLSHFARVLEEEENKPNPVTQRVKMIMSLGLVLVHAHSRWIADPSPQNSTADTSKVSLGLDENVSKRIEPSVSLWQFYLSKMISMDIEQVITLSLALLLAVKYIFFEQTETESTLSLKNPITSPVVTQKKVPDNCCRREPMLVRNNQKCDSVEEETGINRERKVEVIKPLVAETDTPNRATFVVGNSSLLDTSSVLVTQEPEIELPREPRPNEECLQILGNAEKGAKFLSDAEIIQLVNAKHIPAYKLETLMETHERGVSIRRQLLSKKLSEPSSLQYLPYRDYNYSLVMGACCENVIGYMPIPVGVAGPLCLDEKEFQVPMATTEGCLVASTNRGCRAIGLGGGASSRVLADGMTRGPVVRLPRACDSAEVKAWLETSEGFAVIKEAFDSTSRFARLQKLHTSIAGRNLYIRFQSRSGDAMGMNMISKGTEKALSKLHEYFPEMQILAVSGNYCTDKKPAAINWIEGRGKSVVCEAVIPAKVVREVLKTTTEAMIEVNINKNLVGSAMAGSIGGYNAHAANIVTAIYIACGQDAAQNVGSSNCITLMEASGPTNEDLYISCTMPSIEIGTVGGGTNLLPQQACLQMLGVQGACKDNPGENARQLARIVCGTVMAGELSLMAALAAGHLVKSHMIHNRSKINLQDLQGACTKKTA

[8] = biological target: T2, Leukotriene C4 synthase (Cavia porcellus, UniProt A6XA80); experiment: biochemical; type: tissue-based, Lung
T2 sequence (A6XA80 whole entry): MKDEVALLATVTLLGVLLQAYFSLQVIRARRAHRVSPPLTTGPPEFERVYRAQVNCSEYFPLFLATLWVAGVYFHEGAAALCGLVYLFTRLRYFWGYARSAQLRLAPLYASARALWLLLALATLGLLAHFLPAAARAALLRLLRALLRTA

[9] = biological target: T3, Nitric oxide synthase, inducible (Mus musculus, UniProt P29477); parameters: species or system Escherichia coli
T3 sequence (P29477 whole entry): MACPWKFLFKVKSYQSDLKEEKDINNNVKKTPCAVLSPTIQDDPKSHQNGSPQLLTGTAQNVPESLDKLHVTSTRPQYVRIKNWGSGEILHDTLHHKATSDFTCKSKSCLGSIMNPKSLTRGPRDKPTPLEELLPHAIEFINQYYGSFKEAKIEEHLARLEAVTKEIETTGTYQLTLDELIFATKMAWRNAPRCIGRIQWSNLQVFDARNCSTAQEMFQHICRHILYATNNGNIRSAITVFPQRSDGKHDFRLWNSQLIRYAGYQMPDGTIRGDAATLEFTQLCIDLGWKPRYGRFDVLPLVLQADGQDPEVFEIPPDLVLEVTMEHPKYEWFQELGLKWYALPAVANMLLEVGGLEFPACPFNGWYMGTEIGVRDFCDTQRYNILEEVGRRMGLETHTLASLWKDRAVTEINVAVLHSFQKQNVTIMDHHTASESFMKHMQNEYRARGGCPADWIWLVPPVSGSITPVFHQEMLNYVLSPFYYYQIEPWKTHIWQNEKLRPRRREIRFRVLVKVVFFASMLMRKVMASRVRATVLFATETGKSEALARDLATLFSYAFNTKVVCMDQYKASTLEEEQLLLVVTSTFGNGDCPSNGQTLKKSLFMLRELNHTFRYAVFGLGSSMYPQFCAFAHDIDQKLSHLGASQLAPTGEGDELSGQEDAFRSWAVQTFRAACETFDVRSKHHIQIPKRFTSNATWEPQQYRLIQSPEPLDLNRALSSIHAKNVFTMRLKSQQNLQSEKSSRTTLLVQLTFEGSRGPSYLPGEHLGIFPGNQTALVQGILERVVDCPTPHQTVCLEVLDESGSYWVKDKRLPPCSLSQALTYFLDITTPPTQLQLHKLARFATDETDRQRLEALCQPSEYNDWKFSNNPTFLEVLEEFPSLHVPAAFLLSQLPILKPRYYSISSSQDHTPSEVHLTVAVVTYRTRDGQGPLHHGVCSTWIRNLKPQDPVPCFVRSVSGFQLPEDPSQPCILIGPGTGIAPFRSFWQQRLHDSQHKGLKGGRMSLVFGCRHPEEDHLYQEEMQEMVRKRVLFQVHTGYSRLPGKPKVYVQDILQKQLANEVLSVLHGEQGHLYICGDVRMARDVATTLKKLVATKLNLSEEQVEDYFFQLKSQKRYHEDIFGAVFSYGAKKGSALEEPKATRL

[10] = biological target: Acetylcholinesterase (Homo sapiens, UniProt P22303); experiment: DRUGMATRIX: Acetylcholinesterase enzyme inhibition (substrate: acetylthiocholine); type: cell-based, HEK293; settings: hek293; Not Active = under 50% inhibition at 10 µM
Chain of Acetylcholinesterase (P22303 whole entry): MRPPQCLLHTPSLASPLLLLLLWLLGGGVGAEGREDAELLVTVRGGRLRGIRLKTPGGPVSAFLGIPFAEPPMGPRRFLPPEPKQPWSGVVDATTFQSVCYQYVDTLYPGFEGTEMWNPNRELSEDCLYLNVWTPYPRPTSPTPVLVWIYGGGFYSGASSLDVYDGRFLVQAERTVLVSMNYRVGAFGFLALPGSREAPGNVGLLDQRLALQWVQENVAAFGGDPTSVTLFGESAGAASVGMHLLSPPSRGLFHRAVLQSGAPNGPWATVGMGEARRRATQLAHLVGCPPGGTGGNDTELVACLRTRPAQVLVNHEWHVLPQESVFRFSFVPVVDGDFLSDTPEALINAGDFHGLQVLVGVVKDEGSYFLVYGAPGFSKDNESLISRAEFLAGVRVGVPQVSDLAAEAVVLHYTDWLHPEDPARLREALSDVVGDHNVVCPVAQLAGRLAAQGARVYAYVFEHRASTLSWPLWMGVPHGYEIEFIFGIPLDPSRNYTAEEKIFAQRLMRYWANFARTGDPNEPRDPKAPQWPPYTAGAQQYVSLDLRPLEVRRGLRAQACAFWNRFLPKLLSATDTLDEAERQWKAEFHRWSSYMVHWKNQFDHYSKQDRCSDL

Chain of Vascular endothelial growth factor receptor 1 (P17948 whole entry): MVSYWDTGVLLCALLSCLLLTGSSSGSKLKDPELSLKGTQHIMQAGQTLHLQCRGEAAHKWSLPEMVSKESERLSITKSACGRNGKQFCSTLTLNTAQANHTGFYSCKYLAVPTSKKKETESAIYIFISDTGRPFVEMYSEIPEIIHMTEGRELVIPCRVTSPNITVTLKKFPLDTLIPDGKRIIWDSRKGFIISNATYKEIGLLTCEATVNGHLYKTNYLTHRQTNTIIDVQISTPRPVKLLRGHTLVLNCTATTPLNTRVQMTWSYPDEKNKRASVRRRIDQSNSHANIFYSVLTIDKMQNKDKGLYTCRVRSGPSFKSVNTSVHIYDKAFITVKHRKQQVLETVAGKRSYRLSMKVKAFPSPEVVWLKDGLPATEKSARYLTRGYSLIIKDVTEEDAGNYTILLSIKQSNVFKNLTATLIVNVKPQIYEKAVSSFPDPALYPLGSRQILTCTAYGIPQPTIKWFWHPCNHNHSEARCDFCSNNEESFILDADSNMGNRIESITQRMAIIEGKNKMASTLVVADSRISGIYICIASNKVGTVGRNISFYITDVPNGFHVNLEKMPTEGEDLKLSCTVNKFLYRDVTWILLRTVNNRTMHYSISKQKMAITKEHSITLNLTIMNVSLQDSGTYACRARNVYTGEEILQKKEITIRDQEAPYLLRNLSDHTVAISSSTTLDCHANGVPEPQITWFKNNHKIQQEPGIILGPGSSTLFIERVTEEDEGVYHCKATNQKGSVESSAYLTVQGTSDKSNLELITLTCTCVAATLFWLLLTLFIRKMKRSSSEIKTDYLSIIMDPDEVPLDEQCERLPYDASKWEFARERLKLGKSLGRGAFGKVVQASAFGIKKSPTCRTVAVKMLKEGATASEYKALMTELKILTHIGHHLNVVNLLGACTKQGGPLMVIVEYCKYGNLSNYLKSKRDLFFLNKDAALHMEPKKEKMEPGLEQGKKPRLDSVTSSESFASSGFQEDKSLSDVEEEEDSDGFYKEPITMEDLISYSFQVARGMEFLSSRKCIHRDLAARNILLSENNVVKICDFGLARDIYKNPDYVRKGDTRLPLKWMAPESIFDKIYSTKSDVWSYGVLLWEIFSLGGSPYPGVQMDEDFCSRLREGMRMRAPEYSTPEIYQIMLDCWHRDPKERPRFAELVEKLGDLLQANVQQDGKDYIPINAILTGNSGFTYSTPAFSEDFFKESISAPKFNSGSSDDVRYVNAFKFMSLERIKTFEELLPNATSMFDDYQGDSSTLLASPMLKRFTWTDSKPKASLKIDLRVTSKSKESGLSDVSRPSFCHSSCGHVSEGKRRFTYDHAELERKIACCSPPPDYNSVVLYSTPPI
Chain of 5-hydroxytryptamine receptor 6 (P50406 whole entry): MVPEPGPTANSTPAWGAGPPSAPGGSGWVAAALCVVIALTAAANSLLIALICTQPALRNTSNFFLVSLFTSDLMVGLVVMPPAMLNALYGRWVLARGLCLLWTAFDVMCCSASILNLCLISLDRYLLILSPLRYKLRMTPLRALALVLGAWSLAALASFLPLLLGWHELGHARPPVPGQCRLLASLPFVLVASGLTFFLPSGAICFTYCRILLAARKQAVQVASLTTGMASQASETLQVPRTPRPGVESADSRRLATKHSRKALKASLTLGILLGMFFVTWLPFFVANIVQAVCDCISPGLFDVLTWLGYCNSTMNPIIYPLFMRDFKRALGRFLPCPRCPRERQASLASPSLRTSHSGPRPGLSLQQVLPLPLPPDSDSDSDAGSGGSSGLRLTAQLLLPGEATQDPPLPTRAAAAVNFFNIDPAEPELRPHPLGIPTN
Chain of C-C chemokine receptor type 5 (P51681 whole entry): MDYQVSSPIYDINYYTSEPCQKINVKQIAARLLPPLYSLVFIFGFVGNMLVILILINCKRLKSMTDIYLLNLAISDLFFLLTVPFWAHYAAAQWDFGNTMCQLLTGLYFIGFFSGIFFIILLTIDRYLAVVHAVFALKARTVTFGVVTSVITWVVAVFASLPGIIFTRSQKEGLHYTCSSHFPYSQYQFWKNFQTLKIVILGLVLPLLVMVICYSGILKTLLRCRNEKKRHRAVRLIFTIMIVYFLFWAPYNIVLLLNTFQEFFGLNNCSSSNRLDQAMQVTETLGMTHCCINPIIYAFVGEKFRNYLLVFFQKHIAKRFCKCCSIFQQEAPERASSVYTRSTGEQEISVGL
Chain of Sigma non-opioid intracellular receptor 1 (Q99720 whole entry): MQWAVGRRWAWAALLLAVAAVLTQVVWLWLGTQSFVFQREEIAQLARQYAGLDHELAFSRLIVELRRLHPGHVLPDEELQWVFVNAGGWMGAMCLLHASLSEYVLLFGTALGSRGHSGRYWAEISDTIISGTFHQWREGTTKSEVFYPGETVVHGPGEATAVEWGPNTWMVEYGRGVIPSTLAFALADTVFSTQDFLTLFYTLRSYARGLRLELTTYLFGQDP
Chain of D(3) dopamine receptor (P35462 whole entry): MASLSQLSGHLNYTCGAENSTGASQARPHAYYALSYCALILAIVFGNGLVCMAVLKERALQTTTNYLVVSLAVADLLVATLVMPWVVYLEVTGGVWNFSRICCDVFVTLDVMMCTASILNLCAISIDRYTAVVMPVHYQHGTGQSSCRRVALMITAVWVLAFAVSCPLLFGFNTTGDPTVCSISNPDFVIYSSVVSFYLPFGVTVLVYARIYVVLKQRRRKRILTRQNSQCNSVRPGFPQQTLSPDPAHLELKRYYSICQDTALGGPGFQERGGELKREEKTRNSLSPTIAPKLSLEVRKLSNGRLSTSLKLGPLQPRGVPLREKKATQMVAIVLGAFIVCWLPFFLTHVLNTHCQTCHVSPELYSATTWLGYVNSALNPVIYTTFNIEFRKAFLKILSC

NC(=O)c1ccccc1O [SALICYLAMIDE]
IC50 [1]: Not Active | Ki [1]: Not Active | IC50 ([2]; hela): Not Active | IC50 [3]: Not Active | IC50 [4]: Not Active | IC50 [5]: Not Active | IC50 [6]: Not Active | IC50 [7]: Not Active | IC50 [8]: Not Active | IC50 [9]: Not Active | IC50 [10]: Not Active

C=CC[C@@H]1/C=C(\C)C[C@H](C)C[C@H](OC)[C@H]2O[C@@](O)(C(=O)C(=O)N3CCCC[C@H]3C(=O)O[C@H](/C(C)=C/[C@@H]3CC[C@@H](O)[C@H](OC)C3)[C@H](C)[C@@H](O)CC1=O)[C@H](C)C[C@@H]2OC [TACROLIMUS ANHYDROUS]
IC50 [1]: Not Active | Ki [1]: Not Active | IC50 ([2]; hela): Not Active | IC50 [3]: Not Active | IC50 [4]: Not Active | IC50 [5]: Not Active | IC50 [6]: Not Active | IC50 [7]: Not Active | IC50 [8]: Not Active | IC50 [9]: Not Active | IC50 [10]: Not Active

c1ccc2[nH]c(-c3cscn3)nc2c1 [THIABENDAZOLE]
IC50 [1]: Not Active | Ki [1]: Not Active | IC50 ([2]; hela): Not Active | IC50 [3]: Not Active | IC50 [4]: Not Active | IC50 [5]: Not Active | IC50 [6]: Not Active | IC50 [7]: Not Active | IC50 [8]: Not Active | IC50 [9]: Not Active | IC50 [10]: Not Active

COc1ccc(C(CN(C)C)C2(O)CCCCC2)cc1 (stereo not given) [VENLAFAXINE]
IC50 [1]: Not Active | Ki [1]: Not Active | IC50 ([2]; hela): Not Active | IC50 [3]: Not Active | IC50 [4]: Not Active | IC50 [5]: Not Active | IC50 [6]: Not Active | IC50 [7]: Not Active | IC50 [8]: Not Active | IC50 [9]: Not Active | IC50 [10]: Not Active

CC(C)(C)NC(=O)[C@@H]1CN(Cc2cccnc2)CCN1C[C@@H](O)C[C@@H](Cc1ccccc1)C(=O)N[C@H]1c2ccccc2C[C@H]1O.O
IC50 [1]: Not Active | Ki [1]: Not Active | IC50 ([2]; hela): Not Active | IC50 [3]: Not Active | IC50 [4]: Not Active | IC50 [5]: Not Active | IC50 [6]: Not Active | IC50 [7]: Not Active | IC50 [8]: Not Active | IC50 [9]: Not Active | IC50 [10]: Not Active

Clc1ccc(C(c2ccccc2Cl)C(Cl)Cl)cc1 (stereo not given) [MITOTANE]
IC50 [1]: Not Active | Ki [1]: Not Active | IC50 ([2]; read-out: IC50): 1.4 µM | Ki ([2]; read-out: Ki): 0.651 µM | IC50 [3]: Not Active | IC50 [4]: Not Active | IC50 [5]: Not Active | IC50 [6]: Not Active | IC50 [7]: Not Active | IC50 [8]: Not Active | IC50 [9]: Not Active | IC50 [10]: Not Active

Oc1c(I)cc(I)c2cccnc12 [IODOQUINOL]
IC50 [1]: Not Active | Ki [1]: Not Active | IC50 ([2]; hela): Not Active | IC50 [3]: Not Active | IC50 [4]: Not Active | IC50 [5]: Not Active | IC50 [6]: Not Active | IC50 [7]: Not Active | IC50 [8]: Not Active | IC50 [9]: Not Active | IC50 [10]: Not Active

CN[C@@H]1[C@@H](O)[C@@H](O[C@@H]2[C@@H](O)[C@H](O[C@H]3OC(CN)=CC[C@H]3N)[C@@H](N)C[C@H]2N)OC[C@]1(C)O [SISOMICIN]
IC50 [1]: Not Active | Ki [1]: Not Active | IC50 ([2]; hela): Not Active | IC50 [3]: Not Active | IC50 [4]: Not Active | IC50 [5]: Not Active | IC50 [6]: Not Active | IC50 [7]: Not Active | IC50 [8]: Not Active | IC50 [9]: Not Active | IC50 [10]: Not Active

NNc1ccccc1 [PHENYLHYDRAZINE]
IC50 [1]: Not Active | Ki [1]: Not Active | IC50 ([2]; hela): Not Active | IC50 [3]: Not Active | IC50 [4]: Not Active | IC50 [5]: Not Active | IC50 [6]: Not Active | IC50 [7]: Not Active | IC50 [8]: Not Active | IC50 [9]: Not Active | IC50 [10]: Not Active
